Values of other authors in US20250275937A1, “Methods For Reducing Negative Effects Of Alcohol Consumption” (Honed Life Sciences, LLC, priority 2018, published 2025).

Legend:
[1] = test system: acute alcohol (EtOH) intoxication; conditions: rats
[2] = test system: GABA receptors
[3] = test system: oxidative stress and liver fibrogenesis; conditions: mice

| Compound | Counteracting acute alcohol (EtOH) intoxication and withdrawal signs (tolerance, increased anxiety, seizure susceptibility) [1] | Action on acute EtOH-induced potentiation of GABA receptors [2] | Effect on oxidative stress and liver fibrogenesis [3] |
| --- | --- | --- | --- |
| O=C1c2c(O)cc(O)cc2O[C@H](c2cc(O)c(O)c(O)c2)[C@H]1O [DHM, dihydromyricetin] | highly effective | antagonizing | – |
| O=C(O)c1cc(C(=O)O)c2c(n1)C(=O)C(=O)c1cc(C(=O)O)[nH]c1-2 [PQQ, pyrroloquinoline quinone] | – | – | suppresses oxidative stress and liver fibrogenesis |
